Test results reported in patent US8568736B2, “Polypeptide derivatives of parathyroid hormone (PTH)” (The General Hospital Corporation, priority 1999, dated 2013).
Read-outs that look alike come from different tables or passages of the source. No end group written: not given here.

Legend:
[1] = biological target: T1, human PTH-1 receptor (endogenous, SAOS-2 cells) (Homo sapiens, UniProt Q03431); test: cAMP response in osteoblastic SAOS-2 cells; assay type: cell-based
T1 construct: the human osteoblastic cell line, SAOS-2, express endogenous PTH-1 receptors; endogenous in cells; host or cells: SAOS-2 human osteoblastic cells
T1 sequence (Q03431 27-593): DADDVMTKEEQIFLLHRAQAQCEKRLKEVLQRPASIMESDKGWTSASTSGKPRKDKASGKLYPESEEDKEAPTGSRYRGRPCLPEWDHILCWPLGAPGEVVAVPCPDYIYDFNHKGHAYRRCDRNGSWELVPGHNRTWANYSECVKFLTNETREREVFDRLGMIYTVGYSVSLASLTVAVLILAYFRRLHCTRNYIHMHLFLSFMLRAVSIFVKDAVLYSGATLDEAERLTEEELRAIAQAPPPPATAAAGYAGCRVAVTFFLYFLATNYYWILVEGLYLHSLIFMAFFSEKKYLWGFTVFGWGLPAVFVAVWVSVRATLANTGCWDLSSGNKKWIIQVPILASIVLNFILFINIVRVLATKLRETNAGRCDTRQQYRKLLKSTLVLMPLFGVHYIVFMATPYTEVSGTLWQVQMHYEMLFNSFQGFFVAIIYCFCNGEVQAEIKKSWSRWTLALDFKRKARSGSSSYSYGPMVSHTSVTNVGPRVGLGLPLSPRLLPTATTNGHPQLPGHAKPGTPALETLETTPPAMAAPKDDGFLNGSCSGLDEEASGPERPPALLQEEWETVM
Protocol: The rat osteoblastic cell line ROS 17/2.8 (Majeska, R. J., et al, Endocrinology 107:1494-1503 (1980)) expresses endogenous PTH-1 receptors at levels of 80,000 per cell and the human osteoblastic cell line, SAOS-2, express endogenous PTH-1 receptors at levels of ˜30,000 per cell.
(§1) Stimulation of cells with peptide analogs was performed in 24-well plates. Cells were rinsed with 0.5 mL of binding buffer and treated with 200 μL of cAMP assay buffer (Dulbecco's modified Eagle's medium containing 2 mM 3-isobutyl-1-methylxanthine, 1 mg/mL bovine serum albumin, 35 mM Hepes-NaOH, pH 7.4) and 100 μL of binding buffer containing varying amounts of peptide analog (final volume=300 μL). The medium was removed after incubation for 1 h at room temperature, and the cells were frozen (−80° C.), lysed with 0.5 mL 50 mM HCl, and refrozen (−80° C.). The cAMP content of the diluted lysate was determined by radioimmunoassay. Where possible, cAMP EC50 and Maximum response values were determined using nonlinear regression (see below).
All calculations were performed using Microsoft Excel. Nonlinear regression analysis of cAMP stimulation data was performed using parameters, defined as the Minimum, Maximum, Emax, midpoint (EC50), and slope of the response curve. The predicted response (yp) for a given dose (x) of peptide was calculated using the following equation: yp=Min+[(Max−Min)/(1+(EC50/x)^slope)]. The initial parameter values were estimated from the primary data, and the Excel “Solver function” was then used to vary the four parameters in order to minimize the differences between the predicted and actual responses (least-squares method) (Bowen, W., & Jerman, J., Trends in Pharmacol. Sci. 16:413-417 (1995)). The statistical significance between two data sets was determined using a one-tailed Student's t-test, assuming unequal variances for the two sets.

PTH-1 receptor = biological target: T2, PTH-1 receptor (Homo sapiens, UniProt Q03431); test: cAMP stimulation in HKRK-B7 cells (LLC-PK1 stably transfected with hPTH-1 receptor); assay type: cell-based; design: expressed in transfected cells; host or cells: LLC-PK1 porcine kidney cells, clone HKRK-B7; details: for Emax: Emax constrained to ±1 SD of rPTH(1-34) response at 100 nM; for fold more potent than native PTH(1-14): LLC-PK1 cells stably expressing hPTH-1 receptor
T2 sequence (Q03431 27-593): T1 sequence (Q03431 27-593)
Source text: Stably transfected derivatives of the porcine kidney cell line LLC-PK1, HKRK-B7 (Takasu, H., et al., J. Bone Miner. Res. 14:11-20 (1999)) and hPR2-20, express the human PTH-1 and human PTH-2 receptors respectively. The HKRK-B7 LLC-PK1 cell line expresses the hPTH-1 receptor at ˜1×10^6 receptors/cell (Takasu, H., et al., J. Bone Miner. Res. 14:11-20 (1999)), and the hPR2-22 LLC-PK1 cell line expresses the hPTH-2 receptor at ˜0.8×10^6 receptors/cell (provided by H. Takasu and F. R. Bringhurst, Endocrine Unit, Massachusetts General Hospital).
as §1
Intracellular cAMP accumulation may be measured as described by Abou-Samra et al., J. Biol. Chem. 262:1129, 1986) or other methods known to those of skill in the art. Intracellular cAMP is extracted by thawing the cells in 1 ml of 50 mM HCl and analyzed by a specific radioimmunoassay using an anti-cAMP antibody (e.g., Sigma, St. Louis, Mo.). A cAMP analog (2′-O-monosuccinyl-adenosine 3′:5′-cyclic monophosphate tyrosyl methyl ester, obtained from Sigma) which is used as a tracer for cAMP is iodinated by the chloramine T method. Free iodine is removed by adsorbing the iodinated cAMP analog onto a C18 Sep-pak cartridge (Waters, Milford, Mass.). After washing with dH2O, the iodinated cAMP analog is eluted from the Sep-pak Cartridge with 40% acetonitrille (ACN) and 0.1% trifluoroacetic acid (TFA). The iodinated cAMP analog is lyophilized, reconstituted in 1 ml 0.1% TFA, and injected into a C18 reverse phase HPLC column (Waters). The column is equilibrated with 10% ACN in 0.1% TFA, and eluted with gradient of 10-30% ACN in 0.1% TFA. This allows separation of the mono-iodinated cAMP analog from the non-iodinated cAMP analog. The tracer is stable for up to 4 months when stored at −20° C. The standard used for the assay, adenosine 3′:5′-cyclic monophosphate, is purchased from Sigma. Samples (1-10 µl of HCl extracts) or standards (0.04-100 fmol/tube) are diluted in 50 mM Na-acetate (pH 5.5), and acetylated with 10 μl of mixture of triethylamine and acetic anhydride (2:1 vol:vol). After acetylation, cAMP antiserum (100 μl) is added from a stock solution (1:4000) made in PBS (pH 7.4), 5 mM EDTA and 1% normal rabbit serum. The tracer is diluted in PBS (pH 7.4) with 0.1% BSA, and added (20,000 cpm/tube). The assay is incubated at 4° C. overnight. The bound tracer is precipitated by adding 100 μl of goat anti-rabbit antiserum (1:20 in PBS) and 1 ml of 7% polyethyleneglycol (MW 5000-6000), centrifuging at 2000 rpm for 30 min. at 4° C. The supernatant is removed and the bound radioactivity is counted in a gamma-counter (Micromedic). To compute the cAMP data, logit calculations were performed in Excel spreadsheets. Typically, the assay sensitivity is 0.1 fmol/tube, and the standard concentration that displaces 50% of tracer is 5 fmol/tube.
All calculations were performed using Microsoft Excel. Nonlinear regression analysis of cAMP stimulation data was performed using parameters, defined as the Minimum, Maximum, Emax, midpoint (EC50), and slope of the response curve. The predicted response (yp) for a given dose (x) of peptide was calculated using the following equation: yp=Min+[(Max−Min)/(1+(EC50/x)^slope)]. […]

Compound | EC50 [1] | Emax ([1]; SAOS-2 cells) | EC50 Log M (PTH-1 receptor; HKRK-B7 cells (hPTH-1 Receptor), cAMP, mean ± SEM) | Emax (PTH-1 receptor; HKRK-B7 cells) | EC50 ([1]; SAOS-2 cells, cAMP, read-out: EC50 (converted)) | cAMP signaling activity (in words) (PTH-1 receptor; HKRK-B7 cells, dose-response) | fold more potent than native PTH(1-14) (PTH-1 receptor; cAMP) | fold more potent than native PTH(1-14) (PTH-1 receptor; cAMP, listed as [A^3, A^10, R^11, A^12]rPTH(1-14)amide) | fold more potent than the two controls, rPTH(1-34) and hPTH(1-34) (PTH-1 receptor; HKRK-B7 cells, cAMP) | EC50 Log M ([1]; SAOS-2 cells, cAMP)
CCCC[C@H](NC(=O)[C@H](CCCNC(=N)N)NC(=O)[C@H](CCC(=O)O)NC(=O)[C@@H](NC(=O)[C@H](CO)NC(=O)[C@H](C)NC(=O)[C@H](CC(C)C)NC(=O)[C@H](Cc1c[nH]cn1)NC(=O)[C@H](CCCCN)NC(=O)CNC(=O)[C@H](CC(C)C)NC(=O)[C@H](CC(N)=O)NC(=O)[C@H](Cc1c[nH]cn1)NC(=O)[C@H](CCCC)NC(=O)[C@H](CC(C)C)NC(=O)[C@H](CCC(N)=O)NC(=O)[C@@H](NC(=O)[C@H](CCC(=O)O)NC(=O)[C@H](CO)NC(=O)[C@@H](NC(=O)[C@H](C)N)C(C)C)[C@@H](C)CC)C(C)C)C(=O)N[C@@H](CCC(N)=O)C(=O)N[C@@H](Cc1c[nH]c2ccccc12)C(=O)N[C@@H](CC(C)C)C(=O)N[C@@H](CCCNC(=N)N)C(=O)N[C@@H](CCCCN)C(=O)N[C@@H](CCCCN)C(=O)N[C@@H](CC(C)C)C(=O)N[C@@H](CCC(N)=O)C(=O)N[C@@H](CC(=O)O)C(=O)N[C@H](C(=O)N[C@@H](Cc1c[nH]cn1)C(=O)N[C@@H](CC(N)=O)C(=O)N[C@@H](Cc1ccc(O)cc1)C(N)=O)C(C)C [[Nle8, 21, Y34]rPTH(1-34), [Nle^8,21,Tyr^34]-rPTH(1-34)NH2, reference compound] | 0.178 nM | 272 ± 33 picomole/well | −8.6 ± 0.1 Log M | 293 ± 29 picomole/well |  |  |  |  |  | 
AVAEIQLMHAR-NH2 [compound 6, AlaValAlaGluIleGlnLeuMetHisAlaArg-amide] |  | 235 ± 7 picomole/well |  | 248 ± 13 picomole/well | 75900 nM | signaling activity was readily observed |  |  |  | 
AVAEIQLMHARAKH-NH2 [Peptide #1, AlaValAlaGluIleGlnLeuMetHisAlaArgAlaLysHis-amide] |  | 331 picomole/well |  | 264 ± 16 picomole/well |  |  | 160 fold | 100 fold |  | 
AVAEIQLMHARAKHLNSMERVEWLRKKLQDVHNY-NH2 [Peptide #7] | 0.112 nM | 272 ± 33 picomole/well |  | 244 picomole/well |  |  |  |  | about 2 fold | 
AVSEIQLMHNLGKH-NH2 [native rPTH(1-14), AVSEIQLMHNLGKH, reference compound] |  |  |  | 299 ± 27 picomole/well |  |  |  |  |  | barely active
